Measurements: PubChem BioAssay AID1919001 (Molecular Pharmacology Branch, DTP, NCI, 2023)

Tested on: 699152-130-R-J1-PDC complex spheroid growth
Test: Anticancer human tumor 699152-130-R-J1-PDC patient-derived pancreatic carcinoma cell line growth inhibition [AhR]
Conditions: for IC50: curve of first compound; for viability, T/C: stronger effect = lower value
Procedure, shortened: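 Complex tumor spheroids co-cultured with HUVEC and human MSC stroma; AhR antagonists tested in combination with standard-of-care and investigational agents. Top concentration at or near clinical Cmax (else 10 microM), half-log dilutions; growth expressed as percent test/control.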

[1] = second compound 0.1 µM, first compound 0.0316 µM
[2] = second compound 0.1 µM, first compound 0.1 µM
[3] = second compound 0.1 µM, first compound 0.316 µM
[4] = second compound 0.1 µM, first compound 1 µM
[5] = second compound 0.1 µM, first compound 3.16 µM
[6] = second compound 0.1 µM, first compound 10 µM
[7] = second compound 0.316 µM, first compound 0.0316 µM
[8] = second compound 0.316 µM, first compound 0.1 µM
[9] = second compound 0.316 µM, first compound 0.316 µM
[10] = second compound 0.316 µM, first compound 1 µM
[11] = second compound 0.316 µM, first compound 3.16 µM
[12] = second compound 0.316 µM, first compound 10 µM
[13] = second compound 1 µM, first compound 0.0316 µM
[14] = second compound 1 µM, first compound 0.1 µM
[15] = second compound 1 µM, first compound 0.316 µM
[16] = second compound 1 µM, first compound 1 µM
[17] = second compound 1 µM, first compound 3.16 µM
[18] = second compound 1 µM, first compound 10 µM
[19] = second compound 3.16 µM, first compound 0.0316 µM
[20] = second compound 3.16 µM, first compound 0.1 µM
[21] = second compound 3.16 µM, first compound 0.316 µM
[22] = second compound 3.16 µM, first compound 1 µM
[23] = second compound 3.16 µM, first compound 3.16 µM
[24] = second compound 3.16 µM, first compound 10 µM
[25] = second compound 10 µM, first compound 0.0316 µM
[26] = second compound 10 µM, first compound 0.1 µM
[27] = second compound 10 µM, first compound 0.316 µM
[28] = second compound 10 µM, first compound 1 µM
[29] = second compound 10 µM, first compound 3.16 µM
[30] = second compound 10 µM, first compound 10 µM
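Note: compound exposure lasted 7 days after spheroids had grown for 3 days.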

Row | Structure (SMILES) | IC50 (second compound 0.1 µM) [nM] | IC50 (second compound 0.316 µM) [nM] | IC50 (second compound 1 µM) [nM] | IC50 (second compound 3.16 µM) [nM] | IC50 (second compound 10 µM) [nM] | viability, T/C [1] [%] | viability, T/C [2] [%] | viability, T/C [3] [%] | viability, T/C [4] [%] | viability, T/C [5] [%] | viability, T/C [6] [%] | viability, T/C [7] [%] | viability, T/C [8] [%] | viability, T/C [9] [%] | viability, T/C [13] [%] | viability, T/C [14] [%] | viability, T/C [19] [%] | viability, T/C [20] [%] | viability, T/C [25] [%] | viability, T/C [26] [%] | also measured
1 | COc1cc(Nc2ncc3c(n2)-c2ccc(Cl)cc2C(c2c(F)cccc2OC)=NC3)ccc1C(=O)O + CC(CO)NC(=O)c1cc(-c2ccc(Cl)cc2)nn(-c2cnn(C)c2)c1=O | > 10000 | > 10000 | > 10000 | > 10000 | > 10000 | 92.5 | 79.1 | 78.6 | 65.3 | 63.8 | 62.3 | 97 | 94.4 | 74.5 | 95 | 84 | 85 | 76.1 | 78.7 | 85.8 | viability, T/C [10]: 63%; viability, T/C [11]: 65.1%; viability, T/C [12]: 60.9%; viability, T/C [15]: 86%; viability, T/C [16]: 65.8%; viability, T/C [17]: 64.1%; viability, T/C [18]: 59.7%; viability, T/C [21]: 85.3%; viability, T/C [22]: 59.6%; viability, T/C [23]: 60.2%; viability, T/C [24]: 56.1%; viability, T/C [27]: 83%; viability, T/C [28]: 73.1%; viability, T/C [29]: 69.7%; viability, T/C [30]: 58.9%
2 | Cn1ncnc1C1c2n[nH]c(=O)c3cc(F)cc(c23)NC1c1ccc(F)cc1 (stereo not given) + CC(CO)NC(=O)c1cc(-c2ccc(Cl)cc2)nn(-c2cnn(C)c2)c1=O | > 100 | > 100 | > 100 | > 100 | > 100 | 102 | 98.9 | – | – | – | – | 86.2 | 103 | – | 101 | 102 | 92.9 | 84.2 | 80.1 | 79.5 | viability, T/C (second compound 0.1 µM, first compound 0.000316 µM): 102%; viability, T/C (second compound 0.1 µM, first compound 0.001 µM): 113%; viability, T/C (second compound 0.1 µM, first compound 0.00316 µM): 104%; viability, T/C (second compound 0.1 µM, first compound 0.01 µM): 108%; viability, T/C (second compound 0.316 µM, first compound 0.000316 µM): 105%; viability, T/C (second compound 0.316 µM, first compound 0.001 µM): 102%; viability, T/C (second compound 0.316 µM, first compound 0.00316 µM): 120%; viability, T/C (second compound 0.316 µM, first compound 0.01 µM): 103%; viability, T/C (second compound 1 µM, first compound 0.000316 µM): 101%; viability, T/C (second compound 1 µM, first compound 0.001 µM): 99.3%; viability, T/C (second compound 1 µM, first compound 0.00316 µM): 102%; viability, T/C (second compound 1 µM, first compound 0.01 µM): 101%; viability, T/C (second compound 3.16 µM, first compound 0.000316 µM): 91.5%; viability, T/C (second compound 3.16 µM, first compound 0.001 µM): 95.3%; viability, T/C (second compound 3.16 µM, first compound 0.00316 µM): 97.6%; viability, T/C (second compound 3.16 µM, first compound 0.01 µM): 96.9%; viability, T/C (second compound 10 µM, first compound 0.000316 µM): 95.4%; viability, T/C (second compound 10 µM, first compound 0.001 µM): 81.3%; viability, T/C (second compound 10 µM, first compound 0.00316 µM): 91%; viability, T/C (second compound 10 µM, first compound 0.01 µM): 85.5%
3 | NS(=O)(=O)OCC1CC(n2ccc3c(NC4CCc5ccccc54)ncnc32)CC1O (stereo not given) + CC(CO)NC(=O)c1cc(-c2ccc(Cl)cc2)nn(-c2cnn(C)c2)c1=O | 831 | 765 | 679 | 626 | 602 | 108 | 127 | 120 | 36.9 | 25.2 | 29.3 | 116 | 132 | 97.2 | 115 | 126 | 114 | 127 | 115 | 104 | viability, T/C [10]: 36.8%; viability, T/C [11]: 27.5%; viability, T/C [12]: 29.1%; viability, T/C [15]: 91.1%; viability, T/C [16]: 30.4%; viability, T/C [17]: 23.1%; viability, T/C [18]: 31.4%; viability, T/C [21]: 80.2%; viability, T/C [22]: 31.6%; viability, T/C [23]: 25.5%; viability, T/C [24]: 30.6%; viability, T/C [27]: 69.5%; viability, T/C [28]: 34.1%; viability, T/C [29]: 27.1%; viability, T/C [30]: 30.8%
